Type in all cases: functional
The subject of assay [1] is Splenocyte. The assay is described as follows: Immunomodulatory effect in mouse splenocyte assessed as increase in ConA-induced IL2 release at 5 uM by lymphoproliferation test.
Assay [2] relates to Splenocyte. Kind of assay: Immunomodulatory effect in mouse splenocyte assessed as increase in ConA-induced IFN-gamma release at 25 uM by lymphoproliferation test.
In assay [3] the test system is Splenocyte. Kind of assay: Immunomodulatory effect in mouse splenocyte assessed as increase in ConA-induced IFN-gamma release at 100 uM by lymphoproliferation test.
Assay [4] has as its system Splenocyte. Kind of assay: Immunomodulatory effect in mouse splenocyte assessed as increase in ConA-induced IFN-gamma release at 5 uM by lymphoproliferation test.
The subject of assay [5] is Splenocyte. The assay is described as follows: Immunomodulatory effect in mouse splenocyte assessed as increase in ConA-induced IL2 release at 100 uM by lymphoproliferation test.
Assay [6] relates to Splenocyte. The assay is described as follows: Immunomodulatory effect in mouse splenocyte assessed as increase in ConA-induced IL2 release at 25 uM by lymphoproliferation test.

Molecules are shown by their SMILES.

For `C=C(C)[C@@H]1CC[C@]2(C(=O)O[C@@H]3O[C@H](CO[C@@H]4O[C@H](CO)[C@@H](O[C@H]5O[C@@H](C)[C@H](O)[C@@H](O)[C@H]5O)[C@H](O)[C@H]4O)[C@@H](O)[C@H](O)[C@H]3O)CC[C@]3(C)[C@H](C[C@@H](O)[C@@H]4[C@@]5(C)CC[C@@H](O)C(C)(C)[C@@H]5CC[C@]43C)C12` (stereo partly specified) [ACANTRIFOSIDE A], the Activity is 20.07 pg/mL with Splenocyte [1]; 5.23 pg/mL with Splenocyte [2]; 5.41 pg/mL in the assay on Splenocyte [3]; 4.55 pg/mL in the assay with Splenocyte [4]; 50.66 pg/mL in the assay on Splenocyte [5]; 25.57 pg/mL in the assay with Splenocyte [6].
Regarding `COC(OC)[C@@H](C)[C@@H]1CC[C@]2(C(=O)O[C@H]3O[C@@H](CO[C@H]4O[C@@H](CO)[C@H](O[C@H]5O[C@@H](C)[C@H](O)[C@@H](O)[C@H]5O)[C@@H](O)[C@@H]4O)[C@H](O)[C@@H](O)[C@@H]3O)CC[C@]3(C)[C@H](CC[C@@H]4[C@@]5(C)CC[C@@H](O)[C@@](C)(C(=O)O)[C@@H]5CC[C@]43C)[C@@H]12` [ACANKOREOSIDE L], the Activity is 20.68 pg/mL with Splenocyte [1]; 3.71 pg/mL in the assay on Splenocyte [2]; 6.07 pg/mL with Splenocyte [3]; 3.53 pg/mL with Splenocyte [4]; 74.47 pg/mL in the assay with Splenocyte [5]; 45.06 pg/mL in the assay with Splenocyte [6].
For the compound `C=C(C)[C@@H]1CC[C@]2(C(=O)O[C@@H]3O[C@H](CO[C@@H]4O[C@H](CO)[C@@H](O[C@H]5O[C@@H](C)[C@H](O)[C@@H](O)[C@H]5O)[C@H](O)[C@H]4O)[C@@H](O)[C@H](O)[C@H]3O)CC[C@]3(C)[C@H](C[C@@H](O)[C@@H]4[C@@]5(C)CC[C@@H](O)[C@@](C)(C=O)[C@@H]5CC[C@]43C)[C@@H]12` [ACANKOREOSIDE D], the Activity in the assay on Splenocyte [1] was determined as 19.26 pg/mL; in the assay with Splenocyte [2], 4.62 pg/mL; in the assay with Splenocyte [3], 5.29 pg/mL; in the assay on Splenocyte [4], 3.69 pg/mL; in the assay with Splenocyte [5], 41.34 pg/mL; in the assay with Splenocyte [6], 25.32 pg/mL.
As to `C=C(CO)[C@@H]1CC[C@]2(C(=O)O[C@H]3O[C@@H](CO[C@H]4O[C@@H](CO)[C@H](O[C@H]5O[C@@H](C)[C@H](O)[C@@H](O)[C@H]5O)[C@@H](O)[C@@H]4O)[C@H](O)[C@@H](O)[C@@H]3O)CC[C@]3(C)[C@H](C[C@@H](O)[C@@H]4[C@@]5(C)CC[C@@H](O)[C@@](C)(C(=O)O)[C@@H]5CC[C@]43C)[C@@H]12` [ACANKOREOSIDE M], the Activity stood at 15.27 pg/mL in the assay on Splenocyte [1]; 2.45 pg/mL with Splenocyte [2]; 2.48 pg/mL in the assay with Splenocyte [3]; 1.57 pg/mL in the assay with Splenocyte [4]; 17.26 pg/mL with Splenocyte [5]; 16.92 pg/mL in the assay on Splenocyte [6].
For the compound `C=C(CO)[C@@H]1CC[C@]2(C(=O)O[C@H]3O[C@@H](CO[C@H]4O[C@@H](CO)[C@H](O[C@H]5O[C@@H](C)[C@H](O)[C@@H](O)[C@H]5O)[C@@H](O)[C@@H]4O)[C@H](O)[C@@H](O)[C@@H]3O)CC[C@]3(C)[C@H](C[C@@H](O)[C@@H]4[C@@]5(C)CC[C@@H](O[C@@H]6O[C@H](CO)[C@@H](O)[C@H](O)[C@H]6O)C(C)(C)[C@@H]5CC[C@]43C)[C@@H]12` [ACANKOREOSIDE N], the Activity with Splenocyte [1] turned out to be 17.11 pg/mL; in the assay on Splenocyte [2], 1.55 pg/mL; in the assay on Splenocyte [3], 1.92 pg/mL; in the assay on Splenocyte [4], 1.5 pg/mL; with Splenocyte [5] it was 19.06 pg/mL; in the assay on Splenocyte [6], 13.66 pg/mL.
As for `C=C(CO)[C@@H]1CC[C@]2(C(=O)O[C@H]3O[C@@H](CO[C@H]4O[C@@H](CO)[C@H](O[C@H]5O[C@@H](C)[C@H](O)[C@@H](O)[C@H]5O)[C@@H](O)[C@@H]4O)[C@H](O)[C@@H](O)[C@@H]3O)CC[C@]3(C)[C@H](C[C@@H](O)[C@@H]4[C@@]5(C)CC[C@@H](O)[C@@](C)(C=O)[C@@H]5CC[C@]43C)[C@@H]12` [ACANKOREOSIDE I], the Activity in the assay with Splenocyte [1] was 10.07 pg/mL; in the assay on Splenocyte [2] it was 4.18 pg/mL; in the assay with Splenocyte [3] it was 2.59 pg/mL; with Splenocyte [4], 1.25 pg/mL; in the assay on Splenocyte [5] it was 14.76 pg/mL; in the assay with Splenocyte [6], 12.91 pg/mL.
As for `C=C(C)[C@@H]1CC[C@]2(C(=O)O[C@@H]3O[C@H](CO[C@@H]4O[C@H](CO)[C@@H](O[C@@H]5O[C@@H](C)[C@H](O)[C@@H](O)[C@H]5O)[C@H](O)[C@H]4O)[C@@H](O)[C@H](O)[C@H]3O)CC[C@]3(C)[C@H](CC[C@@H]4[C@@]5(C)CC[C@@H](O)[C@@](C)(C(=O)O)[C@@H]5CC[C@]43C)[C@@H]12` [ACANKOREOSIDE A], the Activity in the assay with Splenocyte [1] was found to be 17.04 pg/mL; in the assay on Splenocyte [2] it was 4.62 pg/mL; with Splenocyte [3] it was 4.57 pg/mL; in the assay with Splenocyte [4] it was 2.89 pg/mL; with Splenocyte [5], 29.78 pg/mL; in the assay on Splenocyte [6], 24.87 pg/mL.
As to `C=C(CO)[C@@H]1CC[C@]2(C(=O)O[C@H]3O[C@@H](CO[C@H]4O[C@@H](CO)[C@H](O[C@H]5O[C@@H](C)[C@H](O)[C@@H](O)[C@H]5O)[C@@H](O)[C@@H]4O)[C@H](O)[C@@H](O)[C@@H]3O)CC[C@]3(C)[C@H](CC[C@@H]4[C@@]5(C)CC[C@@H](O)[C@@](C)(C(=O)O)[C@@H]5CC[C@]43C)[C@@H]12` [ACANKOREOSIDE F], the Activity in the assay on Splenocyte [1] was determined as 16.09 pg/mL; in the assay with Splenocyte [2], 4 pg/mL; in the assay with Splenocyte [3] it was 4.2 pg/mL; with Splenocyte [4] it was 3.3 pg/mL; with Splenocyte [5], 27.57 pg/mL; in the assay on Splenocyte [6], 23.47 pg/mL.
As to `C[C@@H]1O[C@H](O[C@@H]2[C@@H](O)[C@H](O)[C@@H](OC[C@@H]3O[C@H](OC(=O)[C@]45CC[C@@H]([C@](C)(O)CO)[C@@H]4[C@H]4CC[C@@H]6[C@@]7(C)CC[C@@H](O)[C@@](C)(C(=O)O)[C@@H]7CC[C@@]6(C)[C@]4(C)CC5)[C@@H](O)[C@H](O)[C@H]3O)O[C@H]2CO)[C@H](O)[C@H](O)[C@H]1O` [ACANKOREOSIDE K], the Activity was 16.69 pg/mL in the assay with Splenocyte [1]; 3.2 pg/mL in the assay with Splenocyte [2]; 3.66 pg/mL in the assay with Splenocyte [3]; 2.78 pg/mL in the assay on Splenocyte [4]; 21.57 pg/mL with Splenocyte [5]; 20.24 pg/mL in the assay with Splenocyte [6].
In the case of `CC(C)[C@]1(O)CC[C@]2(C(=O)O[C@H]3O[C@@H](CO[C@H]4O[C@@H](CO)[C@H](O[C@H]5O[C@@H](C)[C@H](O)[C@@H](O)[C@H]5O)[C@@H](O)[C@@H]4O)[C@H](O)[C@@H](O)[C@@H]3O)CC[C@]3(C)[C@H](CC[C@@H]4[C@@]5(C)CC[C@@H](O)[C@@](C)(C(=O)O)[C@@H]5CC[C@]43C)[C@H]21` [ACANKOREOSIDE O], the Activity was 13.89 pg/mL in the assay with Splenocyte [1]; 1.68 pg/mL in the assay with Splenocyte [2]; 2.44 pg/mL in the assay with Splenocyte [3]; 1.81 pg/mL in the assay with Splenocyte [4]; 16.3 pg/mL in the assay on Splenocyte [5]; 11.82 pg/mL in the assay with Splenocyte [6].
`CC(=O)[C@@H]1CC[C@]2(C(=O)O[C@H]3O[C@@H](CO[C@H]4O[C@@H](CO)[C@H](O[C@H]5O[C@@H](C)[C@H](O)[C@@H](O)[C@H]5O)[C@@H](O)[C@@H]4O)[C@H](O)[C@@H](O)[C@@H]3O)CC[C@]3(C)[C@H](CC[C@@H]4[C@@]5(C)CC[C@@H](O)[C@@](C)(C(=O)O)[C@@H]5CC[C@]43C)[C@@H]12` [ACANKOREOSIDES J]: the Activity in the assay with Splenocyte [1] was determined as 15.78 pg/mL; in the assay with Splenocyte [2], 3.78 pg/mL; in the assay on Splenocyte [3], 4.36 pg/mL; with Splenocyte [4], 2.75 pg/mL; in the assay on Splenocyte [5], 28.27 pg/mL; in the assay on Splenocyte [6] it was 16.14 pg/mL.

The values above are taken from ChEMBL document CHEMBL1208765, “Structure-activity relationship of lupane-triterpene glycosides from Acanthopanax koreanum on spleen lymphocyte IL-2 and IFN-gamma” (2010).
